Data on four compounds can be found in PMC8850458, “The AUTOTAC chemical biology platform for targeted protein degradation via the autophagy-lysosome system” (Nature Communications, 2022).

Structures are written as SMILES. “And” between values parts separate entries of the source, which are not always exact repeats. Equal values may be shown once.

In one data set the target is tauP301L (Homo sapiens, UniProt P10636, P618L). As to the kind of experiment: WB degradation of tauP301L in SH-SY5Y-tauP301L cells. The data set is classed as cell-based. As to conditions: for Tau normalized to GAPDH and control, AVG %: average of N=3. In a few lines: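 Lysates in SDS/LDS or Laemmli sample buffer were separated by SDS-PAGE and blotted to PVDF. Target protein was detected with primary antibodies, HRP secondary and ECL on X-ray film, and degradation quantified by band densitometry.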

Data set [1] concerns tauP301L inclusion bodies. Put plainly: ICC of TauP301L-GFP autophagic targeting in HeLa cells. The data set is classed as cell-based. As to conditions: Fig. 5k, compound +HCQ; for TauP301L-GFP / LC3 colocalization, cells counted per 50 cells (individual replicates): count out of 50 cells. On the procedure: Fig. 5 Selective degradation of pathological aggregation-prone tau species by aggregate-binding AUTOTAC. a–c WB in SH-SY5Y-tauP301L cells treated with PBA-1105, PBA, or YTK-1105 at the indicated concentrations. d Densitometry of (a, b, and c) (n = 3 biologically independent experiments). e–g Same as (a–c) but with Anle138b-F105, Anle138b, or YTK-105. (h) Densitometry of (e, f, and g) (n = 3 biologically independent experiments). i WB in SH-SY5Y-tauP301L cells treated with PBA-1105 (0.1 μM) at the indicated time points. j ICC of HeLa cells expressing recombinant TauP301L-GFP and treated with the indicated compounds (1 μM, 24 h) and HCQ (10 μM, 24 h). Scale bar, 10 μm. k Quantification of (j) (n = 3 biologically independent experiments each counting 50 cells). l In vivo oligomerization assay in SH-SY5Y-tauP301L cells treated with okadaic acid (15 nM, 24 h) and the indicated compounds (0.1 μM, 24 h). m Triton X-100-fractionation assay in SH-SY5Y-tauP301L cells treated with a combination of HCQ (10 μM, 24 h), okadaic acid (15 nM, 24 h) or PBA-1105 (0.1 μM, 24 h). Data are presented as mean values ± SD where relevant. P-values (from a two-sided unpaired t test): **P < 0.00821. Source data are provided with this paper.
(§1) Cells were cultured on coverslips coated with poly-L-lysine (Sigma) to observe cellular localization of proteins. Using 4% paraformaldehyde in PBS (pH 7.4), the cells were fixed for 15 min at room temperature and washed three times for 5 min with PBS. After fixing, the cells were permeabilized with 0.5% Triton X-100 in PBS solution for 15 min and washed three times with PBS for 5 min. The cells were blocked containing 2% BSA in PBS solution for 1 h at room temperature. Subsequently, the cells were incubated with primary antibody diluted in 2% BSA/PBS solution overnight at 4 °C, followed by washing the cells three times for 10 min with PBS and incubated with Alexa Fluor-conjugated secondary antibody diluted in 2% BSA/PBS for 30 min at room temperature. Using a DAPI-containing mounting medium (Vector Laboratories), the coverslips were mounted on glass slides. Confocal images were taken by laser scanning confocal microscope 510 Meta (Zeiss) and analyzed by Zeiss LSM Image Browser (ver. 4.2.0.121). […] Quantification results are shown as mean ± S.D. or S.E.M. of three independent experiments

The target of another data set is T1, mutant desminL385P (Homo sapiens, UniProt P17661, L385P).
T1 construct: expressed in transfected cells; host or cells: HeLa, transient
As to the kind of experiment: WB degradation of mutant desmin in HeLa cells. The settings on record: exogenously expressed. The data set is classed as cell-based. How it is done: Adherent cells were washed with phosphate-buffered saline (PBS) and cell pellets were lysed in SDS-based sample buffer (277.8 mM Tris-HCI, pH 6.8, 4.4% LDS, 44.4% (v/v) glycerol) containing beta-mercaptoethanol. Alternatively, cell pellets or protein supernatants were lysed in 5X Laemmli sample buffer. Whole-cell lysates were separated using SDS-PAGE, and transferred onto polyvinyllidene difluoride membranes at 100 V for 2 h at 4 °C. The membrane was incubated with a blocking solution consisting 4% skim milk in PBS solution for 30 min at room temperature and incubated with primary antibodies overnight, followed by incubation with host-specific HRP-conjugated secondary antibodies (1:10000 dilution). For signal detection, the membrane was developed with a mixture of ECL solution (Thermo Fisher Scientific) using X-ray films. Densitometry of developed bands was measured and analyzed with ImageJ (NIH, Bethesda).
Supplementary Fig. 5. AUTOTACs selectively target pathological aggregation-prone proteins for autophagic degradation. (a) WB in HEK293T cells treated with PBA-1105 (1 μM) and MG132 (1 μM, 24 h) at the indicated time points. (b) ICC of HeLa cells treated with the indicated compounds (1 μM, 24 h). Scale bar, 10 μm. (c) WB in HEK293T cells treated with PBA-1105 (500 nM, 24 h) and MG132 (1 μM, 24 h) under siRNA-mediated knockdown of p62 or ATG7 (20 nM, 48 h). (d) ICC in HeLa cells transiently expressing WIPI2-GFP and treated with Anle138b-F105 (1 μM, 24 h). Scale bar, 10 μm. (e) ICC in HeLa cells treated with […]
nM, 24 h). (g, h) WB in HeLa cells transiently expressing wild type or mutant (L385P) desmin-flag with LacZ-myc and treated with PBA-1105, PBA-1105b or Anle138b-F105 at the […]

A short description of data set [2]: PK parameters in ICR mice. The settings on record: single injection. The data set is classed as in vivo.
For a further data set, the target named is T2, p62 (Homo sapiens, UniProt Q13501).
T2 construct: expressed in transfected cells; host or cells: HEK293T, transient; whole lysate used
Put plainly: In vitro p62 oligomerization assay. The format is biochemical. As to conditions: HEK293T lysate. How it is done: HEK293T cells were transiently transfected with a plasmid encoding p62-myc/his fusion proteins. Cells were resuspended in lysis buffer [50 mM HEPES (pH 7.4), 0.15 M KCl, 0.1% Nonidet P-40), 10% glycerol, containing a mixture of protease inhibitors and phosphatase inhibitor (Abcam)]. To lyse the cells, 10 cycles of freezing and thawing was done, followed by centrifugation at 13,000 × g for 20 min at 4 °C. Using a BCA assay, the protein concentration of the supernatant was measured. A total of 1 μg of protein was incubated with 1 mM of p62-ZZ ligands in the presence of 100 μM bestatin (Enzo) at room temperature for 2 h. After incubation, each sample was mixed with non-reducing 4X LDS sample buffer, heated at 95 °C for 10 min, and resolved using 4–20% gradient SDS-PAGE (Bio-Rad). To monitor the conversion of p62 monomers into oligomers or aggregates, IB assay was performed using anti-myc antibody.

Data set [3] has as its system AR^+LC3^+ autophagic membranes. As to the kind of experiment: ICC of AR-LC3 co-localization in LNCaP cells. As to conditions: 2.5 µM, 24 h. The data set is classed as cell-based. On the procedure:
as §1

Setting [4] is: densitometry, dosage degradation, SH-SY5Y-Tau-TiFC, 1 nM.
Setting [5] is: densitometry, dosage degradation, SH-SY5Y-Tau-TiFC, 1 nM, read-out: (Tau normalized to GAPDH) normalized to control, percentage (individual replicates N=1, N=2, N=3).
Setting [6] is: densitometry, dosage degradation, SH-SY5Y-Tau-TiFC, 10 nM.
The mark [7] stands for this setting: densitometry, dosage degradation, SH-SY5Y-Tau-TiFC, 100 nM.
The mark [8] stands for this setting: densitometry, dosage degradation, SH-SY5Y-Tau-TiFC, 1 uM.
[9] abbreviates: densitometry, dosage degradation, SH-SY5Y-Tau-TiFC, 10uM.

In general, DC50 refers to the concentration at which degradation of the target reaches its halfway point. Read a high DC50 as a less potent degrader.

Sequence of tauP301L (P10636 1-441 isoform P10636-8 P301L): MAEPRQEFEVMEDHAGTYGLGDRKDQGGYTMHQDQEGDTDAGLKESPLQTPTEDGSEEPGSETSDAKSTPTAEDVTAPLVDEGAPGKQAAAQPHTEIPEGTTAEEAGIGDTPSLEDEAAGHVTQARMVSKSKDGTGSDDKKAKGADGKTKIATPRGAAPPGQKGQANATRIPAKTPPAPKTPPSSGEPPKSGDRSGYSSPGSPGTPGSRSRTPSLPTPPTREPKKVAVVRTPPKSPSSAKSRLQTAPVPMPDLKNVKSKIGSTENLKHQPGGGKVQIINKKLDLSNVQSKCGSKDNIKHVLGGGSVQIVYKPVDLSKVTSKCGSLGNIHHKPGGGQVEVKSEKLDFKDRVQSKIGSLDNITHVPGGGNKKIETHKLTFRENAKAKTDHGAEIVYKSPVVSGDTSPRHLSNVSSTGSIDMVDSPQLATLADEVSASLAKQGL
T2 sequence (Q13501 whole entry): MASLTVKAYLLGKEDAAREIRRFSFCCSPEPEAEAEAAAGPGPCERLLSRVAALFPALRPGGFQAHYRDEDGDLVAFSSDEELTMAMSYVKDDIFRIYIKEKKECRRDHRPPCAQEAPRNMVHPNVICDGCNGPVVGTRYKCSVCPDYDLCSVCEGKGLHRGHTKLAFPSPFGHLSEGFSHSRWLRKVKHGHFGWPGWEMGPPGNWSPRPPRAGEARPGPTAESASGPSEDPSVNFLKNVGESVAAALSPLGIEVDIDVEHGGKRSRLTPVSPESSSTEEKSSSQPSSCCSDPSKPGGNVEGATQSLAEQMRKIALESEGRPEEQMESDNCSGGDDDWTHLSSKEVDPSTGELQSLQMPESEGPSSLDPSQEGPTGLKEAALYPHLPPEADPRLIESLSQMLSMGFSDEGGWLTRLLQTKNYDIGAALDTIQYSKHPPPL
T1 sequence (P17661 whole entry L385P): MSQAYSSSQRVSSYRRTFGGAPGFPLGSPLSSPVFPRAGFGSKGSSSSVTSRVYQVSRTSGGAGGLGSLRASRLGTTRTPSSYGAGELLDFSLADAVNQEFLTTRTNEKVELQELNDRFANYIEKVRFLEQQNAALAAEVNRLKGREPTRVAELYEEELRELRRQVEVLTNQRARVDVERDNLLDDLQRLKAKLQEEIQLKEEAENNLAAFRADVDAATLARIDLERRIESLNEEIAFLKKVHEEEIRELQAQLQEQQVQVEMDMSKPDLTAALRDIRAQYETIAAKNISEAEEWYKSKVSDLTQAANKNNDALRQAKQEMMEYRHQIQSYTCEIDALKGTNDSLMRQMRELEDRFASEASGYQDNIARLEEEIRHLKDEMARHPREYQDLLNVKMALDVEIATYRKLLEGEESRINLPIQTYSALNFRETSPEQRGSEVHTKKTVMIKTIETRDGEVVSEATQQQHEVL

As for `O=C(O)CCCc1ccccc1` [4-PBA, 4-phenylbutyric acid], the “Tau normalized to GAPDH and control, AVG %” value (“Tau normalized … AVG %” below) at tauP301L (setting [4]) was 80.1686%; on tauP301L (setting [6]) it was 93.9777%; at tauP301L (setting [7]) it was 90.7287%; on tauP301L (setting [8]), 84.0643%; at tauP301L (setting [9]), 93.7866%. Further, the remaining activity at 0.001 µM on tauP301L (setting [5]) came to 76.8%. For the same compound, the remaining activity at 10 µM at tauP301L (densitometry, dosage degradation, SH-SY5Y-Tau-TiFC, 10uM, read-out: (Tau normalized to GAPDH) normalized to control, percentage (individual replicates N=1, N=2, N=3)) was 87%. For the same compound, in data set [1], the “TauP301L-GFP / LC3 colocalization, AVG of cells per 50 cells” value turned out to be 13.6667. In addition, the “TauP301L-GFP / LC3 colocalization, percentage AVG” value in data set [1] was found to be 27.3333 percentage. The “TauP301L-GFP / LC3 colocalization, cells counted per 50 cells (individual replicates)” value in data set [1] (listed as PBA) is 12 and 22 and 7.

`O=C(CCCc1ccccc1)NCCOCCOCCOCCNCc1ccc(OCc2ccccc2)c(OCc2ccccc2)c1` [PBA-1105] came in with a DC50 at tauP301L (SH-SY5Y-tauP301L cells) of 1 to 10 nM. The “Dmax,24 hr of tauP301L degradation” value at tauP301L (SH-SY5Y-tauP301L cells) is on record as 100 nM. Also, the “Tau normalized … AVG %” value at tauP301L (setting [4]) came to 46.0558%; at tauP301L (setting [6]) it was 19.6838%; at tauP301L (setting [7]), 23.7212%; at tauP301L (setting [8]), 30.8722%; at tauP301L (densitometry, dosage degradation, SH-SY5Y-Tau-TiFC, 2.5uM), 20.4143%; at tauP301L (densitometry, dosage degradation, SH-SY5Y-Tau-TiFC, 5uM), 12.549%. Also, on tauP301L (setting [9]), the “Tau normalized … AVG %” value is on record as 73.3109%. For the same compound, the remaining activity at 0.001 µM at tauP301L (setting [5]) turned out to be 45%. Further, on tauP301L (densitometry, dosage degradation, SH-SY5Y-Tau-TiFC, 2.5uM, read-out: (Tau normalized to GAPDH) normalized to control, percentage (individual replicates N=1, N=2, N=3)), the remaining activity at 2.5 µM was 19.2%. Moreover, the “degradation of mutant desminL385P” value on mutant desminL385P was “induced the degradation”. Further, the “TauP301L-GFP / LC3 colocalization, AVG of cells per 50 cells” value in data set [1] is listed as 33. Besides, in data set [1], the “TauP301L-GFP / LC3 colocalization, percentage AVG” value is listed as 66 percentage. In addition, the “TauP301L-GFP / LC3 colocalization, cells counted per 50 cells (individual replicates)” value in data set [1] is 33 and 41 and 25. The exposure entry in data set [2] is listed as “good albeit rapidly metabolized exposure”. For the same compound, the p62 self-oligomerization result at p62 is given as “triggered its self-oligomerization”.

As for `O[C@H](CNCCOCCOCCOc1ccc(-c2c(-c3ccccc3)nn3c(C(F)(F)F)cc(C(F)(F)F)nc23)cc1)COc1ccc(OCc2ccccc2)c(OCCCc2ccccc2)c1` [PHTPP-1304], the p62 self-oligomerization result on p62 was “induced self-oligomerization of p62”.

For the compound `C=CC(C)(O)C(=O)N(C(=O)NCCOCCOCCNCC(O)COc1ccc(OCCc2ccccc2)c(OCCc2ccccc2)c1)c1cc(Cl)cc(Cl)c1` (stereo not shown) [VinclozolinM2-2204], in data set [3], the “AR-LC3 colocalization, AVG of cells of 50” value came out at 40 and the “AR-LC3 colocalization, percentage AVG” value stood at 80%. Besides, the “AR-LC3 colocalization, cells of 50 cells counted” value in data set [3] (single experiments, listed as Vinclo.-2204) was 41 and 36 and 43.
